Data taken from patent publication US12486290B2, “Isoindolinone and indazole compounds for the degradation of EGFR” (C4 THERAPEUTICS, INC., priority 2019, dated 2025).

How the values were obtained:
Type in all cases: cell-based
[1] = molecular target: T1, EGFR T790M/L858R (NCI-H1975 cells) (Homo sapiens, UniProt P00533, L858R/T790M); assay: EGFR (L858R) degradation analysis, Total EGFR (L858R) HTRF, NCI-H1975 cells; conditions: 6 hours
T1 construct: NCI-H1975 (harboring EGFR heterozygous T790M/L858R mutations); host or cells: NCI-H1975
Outline: (§1)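 Cells (10000/well NCI-H1975 and NCI-H1975+CS, 1000/well NCI-H3255) treated with 11-point half-log titrations from 10 μM top, in duplicate, for 6 hours at 37° C., 5% CO2. Total EGFR (L858R) quantified by HTRF FRET; untreated cells as negative and cell-free wells as positive control.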

[2] = molecular target: T2, EGFR L858R (NCI-H3255 cells) (Homo sapiens, UniProt P00533, L858R); assay: EGFR (L858R) degradation analysis, Total EGFR (L858R) HTRF, NCI-H3255 cells; conditions: 6 hours
T2 construct: NCI-H3255 (harboring EGFR heterozygous L858R mutation); host or cells: NCI-H3255
Outline: as §1

[3] = molecular target: T3, EGFR T790M/L858R/C797S (NCI-H1975+CS cells) (Homo sapiens, UniProt P00533, C797S/L858R/T790M); assay: EGFR (L858R) degradation analysis, Total EGFR (L858R) HTRF, NCI-H1975+CS cells; conditions: 6 hours, read-out: H1975 C797S clone EGFR DC50
T3 construct: NCI-H1975+CS (harboring EGFR heterozygous T/790M/L858R/C797S mutations) was generated using CRISPR technology; host or cells: NCI-H1975+CS (CRISPR-edited NCI-H1975)
Excerpt: NCI-H1975 (harboring EGFR heterozygous T790M/L858R mutations) and NCI-H3255 (harboring EGFR heterozygous L858R mutation) were purchased from ATCC and NCI, respectively. NCI-H1975+CS (harboring EGFR heterozygous T/790M/L858R/C797S mutations) was generated using CRISPR technology to introduce the additional C797S mutation by Horizon Discovery. RPMI 1640 no-phenol red medium and fetal bovine serum (FBS) were purchased from Gibco (Grand Island, NY, USA). Cell culture flasks and 384-well microplates were acquired from VWR (Radnor, PA, USA). Total EGFR (L858R) HTRF assay kits were purchased from Cisbio (Bedford, MA, USA).
Degradation of EGFR protein containing L858R mutation was determined based on quantification of FRET signal using Total EGFR (L858R) HTRF assay kit. Test compounds were added to the 384-well plate from a top concentration of 10 μM with 11 points, half log titration in duplicates. NCI-H1975, NCI-H1975+CS or NCI-H3255 cells were added into 384-well plates at a cell density of 10000, 10000 or 1000 cells per well, respectively. The plates were kept at 37° C. with 5% CO2 for 6 hours. Cells treated in the absence of the test compound were the negative control. Positive control was set by wells containing all reagents but no cells. FRET signal was acquired on EnVision™ Multilabel Reader (PerkinElmer, Santa Clara, CA, USA).

T3 sequence (P00533 25-1210 T790M/C797S/L858R): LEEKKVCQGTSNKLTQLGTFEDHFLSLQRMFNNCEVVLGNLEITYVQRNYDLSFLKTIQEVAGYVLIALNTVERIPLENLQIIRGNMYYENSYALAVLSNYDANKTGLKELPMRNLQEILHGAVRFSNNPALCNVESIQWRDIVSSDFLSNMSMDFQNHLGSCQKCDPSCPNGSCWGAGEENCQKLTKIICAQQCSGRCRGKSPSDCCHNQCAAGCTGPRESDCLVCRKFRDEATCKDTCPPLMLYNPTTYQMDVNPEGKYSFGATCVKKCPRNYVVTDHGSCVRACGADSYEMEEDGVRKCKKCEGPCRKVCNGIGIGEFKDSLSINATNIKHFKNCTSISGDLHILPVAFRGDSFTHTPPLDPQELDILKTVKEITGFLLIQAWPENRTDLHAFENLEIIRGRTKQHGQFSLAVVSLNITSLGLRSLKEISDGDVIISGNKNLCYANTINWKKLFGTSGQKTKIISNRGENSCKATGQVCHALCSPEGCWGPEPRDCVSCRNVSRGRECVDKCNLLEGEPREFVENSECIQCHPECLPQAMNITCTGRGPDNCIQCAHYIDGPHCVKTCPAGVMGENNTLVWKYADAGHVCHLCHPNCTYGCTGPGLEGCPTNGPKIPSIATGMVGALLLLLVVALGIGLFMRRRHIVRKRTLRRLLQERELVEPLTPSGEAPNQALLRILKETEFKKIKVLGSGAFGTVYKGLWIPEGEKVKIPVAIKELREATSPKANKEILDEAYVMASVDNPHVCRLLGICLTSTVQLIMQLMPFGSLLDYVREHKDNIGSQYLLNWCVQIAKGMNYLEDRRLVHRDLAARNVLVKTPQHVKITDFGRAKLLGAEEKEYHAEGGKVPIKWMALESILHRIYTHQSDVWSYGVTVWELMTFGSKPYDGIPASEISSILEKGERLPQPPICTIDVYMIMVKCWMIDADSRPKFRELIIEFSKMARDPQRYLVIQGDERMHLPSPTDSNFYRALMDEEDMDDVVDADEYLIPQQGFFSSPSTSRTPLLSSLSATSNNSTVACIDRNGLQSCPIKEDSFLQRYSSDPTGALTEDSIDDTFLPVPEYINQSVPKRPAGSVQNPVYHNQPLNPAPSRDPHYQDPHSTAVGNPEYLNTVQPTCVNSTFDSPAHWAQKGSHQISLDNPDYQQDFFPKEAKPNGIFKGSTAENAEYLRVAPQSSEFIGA
T1 sequence (P00533 25-1210 T790M/L858R): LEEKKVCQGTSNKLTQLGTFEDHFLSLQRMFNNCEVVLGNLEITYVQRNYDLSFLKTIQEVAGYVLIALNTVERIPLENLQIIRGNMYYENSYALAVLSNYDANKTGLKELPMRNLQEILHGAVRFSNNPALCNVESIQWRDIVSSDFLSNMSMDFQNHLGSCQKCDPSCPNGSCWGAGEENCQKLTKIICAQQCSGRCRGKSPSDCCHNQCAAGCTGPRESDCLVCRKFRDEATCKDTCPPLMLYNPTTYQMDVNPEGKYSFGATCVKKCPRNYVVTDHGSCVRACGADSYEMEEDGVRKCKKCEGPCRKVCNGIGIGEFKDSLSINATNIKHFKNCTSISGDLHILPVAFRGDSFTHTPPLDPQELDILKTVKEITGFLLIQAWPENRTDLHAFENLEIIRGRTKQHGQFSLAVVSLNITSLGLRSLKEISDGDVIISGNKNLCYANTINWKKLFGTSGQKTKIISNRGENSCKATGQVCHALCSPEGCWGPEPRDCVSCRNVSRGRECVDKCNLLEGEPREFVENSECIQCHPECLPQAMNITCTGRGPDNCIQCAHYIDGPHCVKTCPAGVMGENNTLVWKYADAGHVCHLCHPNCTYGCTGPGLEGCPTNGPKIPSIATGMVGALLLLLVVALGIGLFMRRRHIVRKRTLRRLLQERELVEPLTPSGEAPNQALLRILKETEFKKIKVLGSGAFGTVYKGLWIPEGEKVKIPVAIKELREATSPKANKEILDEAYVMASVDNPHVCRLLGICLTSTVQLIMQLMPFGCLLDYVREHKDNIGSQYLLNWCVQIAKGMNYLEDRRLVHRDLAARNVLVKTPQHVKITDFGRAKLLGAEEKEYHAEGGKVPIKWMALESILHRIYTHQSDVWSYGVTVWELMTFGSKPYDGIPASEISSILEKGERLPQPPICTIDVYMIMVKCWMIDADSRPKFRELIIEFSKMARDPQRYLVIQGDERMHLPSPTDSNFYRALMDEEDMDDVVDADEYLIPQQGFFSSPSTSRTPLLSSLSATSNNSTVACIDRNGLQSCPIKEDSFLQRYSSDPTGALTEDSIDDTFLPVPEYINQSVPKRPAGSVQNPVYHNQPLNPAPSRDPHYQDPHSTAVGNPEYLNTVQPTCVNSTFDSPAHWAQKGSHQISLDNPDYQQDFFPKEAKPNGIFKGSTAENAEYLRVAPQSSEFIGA
T2 sequence (P00533 25-1210 L858R): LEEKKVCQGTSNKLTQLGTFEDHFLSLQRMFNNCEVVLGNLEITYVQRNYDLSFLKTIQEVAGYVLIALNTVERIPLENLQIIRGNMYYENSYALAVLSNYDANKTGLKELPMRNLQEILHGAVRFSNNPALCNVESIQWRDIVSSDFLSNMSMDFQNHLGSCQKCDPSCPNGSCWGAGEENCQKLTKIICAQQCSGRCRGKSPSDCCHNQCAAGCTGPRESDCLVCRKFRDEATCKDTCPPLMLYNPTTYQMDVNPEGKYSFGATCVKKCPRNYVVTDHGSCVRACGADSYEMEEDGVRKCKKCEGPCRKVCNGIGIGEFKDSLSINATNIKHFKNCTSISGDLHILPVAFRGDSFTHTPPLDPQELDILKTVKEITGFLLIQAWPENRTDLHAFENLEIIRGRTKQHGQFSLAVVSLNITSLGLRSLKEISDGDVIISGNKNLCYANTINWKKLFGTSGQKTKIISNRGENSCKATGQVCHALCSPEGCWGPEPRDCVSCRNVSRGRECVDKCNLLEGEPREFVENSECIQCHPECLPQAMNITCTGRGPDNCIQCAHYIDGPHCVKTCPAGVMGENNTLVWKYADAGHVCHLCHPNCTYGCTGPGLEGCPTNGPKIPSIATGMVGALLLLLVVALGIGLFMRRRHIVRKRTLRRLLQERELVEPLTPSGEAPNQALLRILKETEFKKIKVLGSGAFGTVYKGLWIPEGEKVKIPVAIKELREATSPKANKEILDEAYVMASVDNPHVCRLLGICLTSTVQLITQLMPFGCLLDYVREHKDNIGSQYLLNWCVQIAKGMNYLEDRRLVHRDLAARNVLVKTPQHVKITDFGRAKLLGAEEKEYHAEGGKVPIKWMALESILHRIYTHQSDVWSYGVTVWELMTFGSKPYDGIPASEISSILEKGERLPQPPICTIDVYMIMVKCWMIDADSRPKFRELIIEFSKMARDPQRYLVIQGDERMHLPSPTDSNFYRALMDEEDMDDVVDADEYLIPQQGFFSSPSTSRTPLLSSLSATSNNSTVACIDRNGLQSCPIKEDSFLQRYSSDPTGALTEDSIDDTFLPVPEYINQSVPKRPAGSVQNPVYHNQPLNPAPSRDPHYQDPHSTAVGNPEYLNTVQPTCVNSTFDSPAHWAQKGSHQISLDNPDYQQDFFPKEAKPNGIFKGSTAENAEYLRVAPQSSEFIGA

| SMILES | DC50 [1] | DC50 [2] | DC50 [3] |
| --- | --- | --- | --- |
| O=C1CCC(Nc2ccc(C3CCN(CC(=O)N4CCN(c5ccc(-c6cc(F)c7c(c6)C(=O)N(C(C(=O)Nc6ccccn6)c6ncn8c6CCC8)C7)cc5)CC4)CC3)cc2)C(=O)N1 (stereo not drawn) [Compound 19, 2-(6,7-dihydro-5H-pyrrolo[1,2-c]imidazol-1-yl)-2-(6-(4-(4-(2-(4-(4-((2,6-dioxopiperidin-3-yl)amino)phenyl)piperidin-1-yl)acetyl)piperazin-1-yl)phenyl)-4-fluoro-1-oxoisoindolin-2-yl)-N-(pyridin-2-yl)acetamide] | 50 nM | 13 nM | 20 nM |
| O=C1CCC(Nc2ccc(C3CCN(CC(=O)N4CCN(c5ccc(-c6cc(F)c7c(c6)C(=O)N(C(C(=O)Nc6ccccn6)c6ncn8c6CCC8)C7)cc5)CC4)CC3)c(F)c2)C(=O)N1 (stereo not drawn) [Compound 20, 2-(6,7-dihydro-5H-pyrrolo[1,2-c]imidazol-1-yl)-2-[6-[4-[4-[2-[4-[4-[(2,6-dioxo-3-piperidyl)amino]-2-fluoro-phenyl]-1-piperidyl]acetyl]piperazin-1-yl]phenyl]-4-fluoro-1-oxo-isoindolin-2-yl]-N-(2-pyridyl)acetamide] | 59 nM | 25 nM | 34 nM |
| O=C1CC[C@@H](Nc2ccc(C3CCN(CC(=O)N4CCC(c5ccc(-c6cc(F)c7c(c6)C(=O)N(C(C(=O)Nc6nccs6)c6ncn8c6CCC8)C7)cc5)CC4)CC3)c(F)c2)C(=O)N1 (stereo partly drawn) [Compound 24, 2-(6,7-dihydro-5H-pyrrolo[1,2-c]imidazol-1-yl)-2-(6-(4-(1-(2-(4-(4-(((R)-2,6-dioxopiperidin-3-yl)amino)-2-fluorophenyl)piperidin-1-yl)acetyl)piperidin-4-yl)phenyl)-4-fluoro-1-oxoisoindolin-2-yl)-N-(thiazol-2-yl)acetamide] | 70 nM | 6 nM | 24 nM |
| N#Cc1cc(NC2CCC(=O)NC2=O)ccc1C1CCN(CC(=O)N2CCC(c3ccc(-c4cc(F)c5c(c4)C(=O)N(C(C(=O)Nc4nccs4)c4ncn6c4CCC6)C5)cc3)CC2)CC1 (stereo not drawn) [Compound 25, 2-(6-(4-(1-(2-(4-(2-cyano-4-((2,6-dioxopiperidin-3-yl)amino)phenyl)piperidin-1-yl)acetyl)piperidin-4-yl)phenyl)-4-fluoro-1-oxoisoindolin-2-yl)-2-(6,7-dihydro-5H-pyrrolo[1,2-c]imidazol-1-yl)-N-(thiazol-2-yl)acetamide] | 25 nM | 6 nM | 17 nM |
| N#Cc1cc(NC2CCC(=O)NC2=O)ccc1C1CCN(CC(=O)N2CCC(Oc3ccc(-c4cc(F)c5c(c4)C(=O)N(C(C(=O)Nc4nccs4)c4ncn6c4CCC6)C5)cc3)CC2)CC1 (stereo not drawn) [Compound 37, 2-(6-(4-((1-(2-(4-(2-cyano-4-((2,6-dioxopiperidin-3-yl)amino)phenyl)piperidin-1-yl)acetyl)piperidin-4-yl)oxy)phenyl)-4-fluoro-1-oxoisoindolin-2-yl)-2-(6,7-dihydro-5H-pyrrolo[1,2-c]imidazol-1-yl)-N-(thiazol-2-yl)acetamide] | 46 nM | 16 nM | 19 nM |
| O=C1CC[C@H](Nc2ccc(C3CCN(CC(=O)N4CCN(c5ccc(-c6cc(F)c7c(c6)C(=O)N(C(C(=O)Nc6nccs6)c6ncn8c6C[C@@H](F)C8)C7)cc5)CC4)CC3)c(F)c2)C(=O)N1 (stereo partly drawn) [Compound 44, 2-[6-[4-[4-[2-[4-[4-[[(3S)-2,6-dioxo-3-piperidyl]amino]-2-fluoro-phenyl]-1-piperidyl]acetyl]piperazin-1-yl]phenyl]-4-fluoro-1-oxo-isoindolin-2-yl]-2-[(6R)-6-fluoro-6,7-dihydro-5H-pyrrolo[1,2-c]imidazol-1-yl]-N-thiazol-2-yl-acetamide] | 22 nM | 6 nM | 12 nM |
| O=C1CCC(Nc2ccc(C3CCN(CC(=O)N4CC5(C4)CN(c4ccc(-c6cc(F)c7c(c6)C(=O)N(C(C(=O)Nc6nccs6)c6ncn8c6CCC8)C7)cc4)C5)CC3)cc2)C(=O)N1 (stereo not drawn) [Compound 47, 2-(6,7-dihydro-5H-pyrrolo[1,2-c]imidazol-1-yl)-2-[6-[4-[2-[2-[4-[4-[(2,6-dioxo-3-piperidyl)amino]phenyl]-1-piperidyl]acetyl]-2,6-diazaspiro[3.3]heptan-6-yl]phenyl]-4-fluoro-1-oxo-isoindolin-2-yl]-N-thiazol-2-yl-acetamide] | 18 nM | 10 nM | 9 nM |
| O=C1CC[C@H](Nc2ccc(C3CCN(CC(=O)N4CC5(C4)CN(c4ccc(-c6cc(F)c7c(c6)C(=O)N(C(C(=O)Nc6nccs6)c6ncn8c6CCC8)C7)cc4)C5)CC3)c(F)c2)C(=O)N1 (stereo partly drawn) [Compound 48, 2-(6,7-dihydro-5H-pyrrolo[1,2-c]imidazol-1-yl)-2-[6-[4-[2-[2-[4-[4-[[(3S)-2,6-dioxo-3-piperidyl]amino]-2-fluoro-phenyl]-1-piperidyl]acetyl]-2,6-diazaspiro[3.3]heptan-6-yl]phenyl]-4-fluoro-1-oxo-isoindolin-2-yl]-N-thiazol-2-yl-acetamide] | 28 nM | 7 nM | 11 nM |

Next, values leading:

| DC50 [1] | DC50 [2] | DC50 [3] | SMILES |
| --- | --- | --- | --- |
| 31 nM | 11 nM | 17 nM | O=C1CCC(Nc2ccc(C3CCN(CC(=O)N4CCC(c5ccc(-c6cc(F)c7c(c6)C(=O)N(C(C(=O)Nc6nccs6)c6ncn8c6CCC8)C7)cc5)CC4)CC3)cc2)C(=O)N1 (stereo not drawn) [Compound 21, 2-(6,7-dihydro-5H-pyrrolo[1,2-c]imidazol-1-yl)-2-(6-(4-(1-(2-(4-(4-((2,6-dioxopiperidin-3-yl)amino)phenyl)piperidin-1-yl)acetyl)piperidin-4-yl)phenyl)-4-fluoro-1-oxoisoindolin-2-yl)-N-(thiazol-2-yl)acetamide] |
| 47 nM | 12 nM | 11 nM | O=C1CC[C@H](Nc2ccc(C3CCN(CC(=O)N4CCC(Oc5ccc(-c6cc(F)c7c(c6)C(=O)N(C(C(=O)Nc6nccs6)c6ncn8c6CCC8)C7)cc5)CC4)CC3)cc2)C(=O)N1 (stereo partly drawn) [Compound 32, 2-(6,7-dihydro-5H-pyrrolo[1,2-c]imidazol-1-yl)-2-[6-[4-[[1-[2-[4-[4-[[(3S)-2,6-dioxo-3-piperidyl]amino]phenyl]-1-piperidyl]acetyl]-4-piperidyl]oxy]phenyl]-4-fluoro-1-oxo-isoindolin-2-yl]-N-thiazol-2-yl-acetamide] |
| 38 nM | 8 nM | 19 nM | O=C1CC[C@@H](Nc2ccc(C3CCN(CC(=O)N4CCC(Oc5ccc(-c6cc(F)c7c(c6)C(=O)N(C(C(=O)Nc6nccs6)c6ncn8c6CCC8)C7)cc5)CC4)CC3)cc2)C(=O)N1 (stereo partly drawn) [Compound 33, 2-(6,7-dihydro-5H-pyrrolo[1,2-c]imidazol-1-yl)-2-[6-[4-[[1-[2-[4-[4-[[(3R)-2,6-dioxo-3-piperidyl]amino]phenyl]-1-piperidyl]acetyl]-4-piperidyl]oxy]phenyl]-4-fluoro-1-oxo-isoindolin-2-yl]-N-thiazol-2-yl-acetamide] |
| 57 nM | 13 nM | 22 nM | O=C1CCC(Nc2ccc(C3CCN(CC(=O)N4CCC(Oc5ccc(-c6cc(F)c7c(c6)C(=O)N(C(C(=O)Nc6nccs6)c6ncn8c6CCC8)C7)cc5)CC4)CC3)cc2F)C(=O)N1 (stereo not drawn) [Compound 34, 2-(6,7-dihydro-5H-pyrrolo[1,2-c]imidazol-1-yl)-2-(6-(4-((1-(2-(4-(4-((2,6-dioxopiperidin-3-yl)amino)-3-fluorophenyl)piperidin-1-yl)acetyl)piperidin-4-yl)oxy)phenyl)-4-fluoro-1-oxoisoindolin-2-yl)-N-(thiazol-2-yl)acetamide] |
| 46 nM | 9 nM | 12 nM | O=C1CCC(Nc2ccc(C3CCN(CC(=O)N4CCC(Oc5ccc(-c6cc(F)c7c(c6)C(=O)N(C(C(=O)Nc6nccs6)c6ncn8c6CCC8)C7)cc5)CC4)CC3)c(F)c2)C(=O)N1 (stereo not drawn) [Compound 35, 2-(6,7-dihydro-5H-pyrrolo[1,2-c]imidazol-1-yl)-2-(6-(4-((1-(2-(4-(4-((2,6-dioxopiperidin-3-yl)amino)-2-fluorophenyl)piperidin-1-yl)acetyl)piperidin-4-yl)oxy)phenyl)-4-fluoro-1-oxoisoindolin-2-yl)-N-(thiazol-2-yl)acetamide] |
